Data as given in BindingDB's records for doi:10.1021/jm051059p (Merck Frosst Centre For Therapeutic Research, 2006).

Molecular target: T1, Cathepsin K (Oryctolagus cuniculus, UniProt P43236)
T1 sequence (P43236 whole entry): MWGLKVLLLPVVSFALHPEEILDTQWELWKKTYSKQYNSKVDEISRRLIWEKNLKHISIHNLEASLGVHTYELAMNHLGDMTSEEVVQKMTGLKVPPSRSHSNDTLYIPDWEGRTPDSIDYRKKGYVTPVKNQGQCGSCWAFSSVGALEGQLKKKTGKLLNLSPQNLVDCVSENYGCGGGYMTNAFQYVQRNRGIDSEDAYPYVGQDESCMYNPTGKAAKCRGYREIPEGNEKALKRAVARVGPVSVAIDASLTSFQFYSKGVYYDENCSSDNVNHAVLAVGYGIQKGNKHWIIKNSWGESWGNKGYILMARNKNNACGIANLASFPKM
Assay: Enzyme Inhibition Assay
Description: Prior to the addition of substrate, different concentrations of the inhibitor ranging from 100 uM to 0.2 nM were preincubated for 15 min with enzyme to allow the establishment of the enzyme-inhibitor complex. The proteolytic cleavage of N-acyl aminocoumarins by cathepsins was conducted in 96-well plate format and the plate read using a Spectramax (Molecular Devices) plate reader. The excitation wavelength was 355 nm and the emission wavelength was 460 nm for peptidyl-AMC substrates. The percent inhibition of the reaction was calculated from a control reaction containing only vehicle. IC50 curves were generated by fitting percent inhibition values to a four parameter logistic model (SOFTMAX PRO, Molecular Devices).

Row | Compound | IC50 (pH 5.5, 22 °C) | IC50
1 | CSc1ccc(/C=C\[C@@H]2CCCC[C@H]2C(=O)NCC#N)cc1 (racemic) [racemic mixture] | 0.5 nM | –
2 | N#CCNC(=O)[C@@H]1CC(F)(F)CC[C@H]1c1ccccc1-c1ccc(F)cc1 (racemic) [racemic mixture] | – | 19 nM

More lines, now with the values ahead:

Row | IC50 (pH 5.5, 22 °C) | IC50 | Compound
3 | 100 nM | – | N#CCNC(=O)[C@@H]1CCCC[C@H]1CSc1ccc(N)cc1 (racemic) [racemic mixture]
4 | 1.7 nM | – | CSc1ccc(CC[C@@H]2CCCC[C@H]2C(=O)NCC#N)cc1 [racemic mixture]
5 | 100 nM | – | Cc1ccc(SC[C@@H]2CCCC[C@H]2C(=O)NCC#N)cc1 [racemic mixture]
